Measured values: PubChem BioAssay (NCI)
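Step 1: Grow cells in 96-well plates. Step 2: Expose to compound for 48 hours at 5 concentrations. Step 3: Interpolate endpoints linearly; if unreached, use highest concentration. GI50 marks 50% less growth. TGI marks complete inhibition of growth.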

Experiments:
Experiment in all cases: NCI anticancer screen, dose series, 48 h
ACHN renal = test system: ACHN renal
HCT-116 colon = test system: HCT-116 colon
HL-60(TB) leukemia = test system: HL-60(TB) leukemia
KM12 colon = test system: KM12 colon
SF-268 CNS = test system: SF-268 CNS
SF-539 CNS = test system: SF-539 CNS
SNB-19 CNS = test system: SNB-19 CNS
U251 CNS = test system: U251 CNS
K-562 leukemia = test system: K-562 leukemia
NCI-H23 lung = test system: NCI-H23 lung

SMILES | TGI (ACHN renal) [µM] | TGI (HCT-116 colon) [µM] | TGI (HL-60(TB) leukemia) [µM] | TGI (KM12 colon) [µM] | TGI (SF-268 CNS) [µM] | TGI (SF-539 CNS) [µM] | TGI (SNB-19 CNS) [µM] | TGI (U251 CNS) [µM] | GI50 (ACHN renal) [µM] | GI50 (HCT-116 colon) [µM] | GI50 (HL-60(TB) leukemia) [µM] | GI50 (K-562 leukemia) [µM] | TGI (K-562 leukemia) [µM] | GI50 (KM12 colon) [µM] | GI50 (NCI-H23 lung) [µM] | TGI (NCI-H23 lung) [µM] | GI50 (SF-268 CNS) [µM] | GI50 (SF-539 CNS) [µM] | GI50 (SNB-19 CNS) [µM] | GI50 (U251 CNS) [µM]
CC1=C2CC[C@@]3(C)C(=CCC3O)C2(C)CCC1=O (some centres undefined) | > 100 | > 100 | > 100 | > 100 | > 100 | > 100 | > 100 | > 100 | – | – | – | – | – | – | – | – | – | – | – | –
CCOC(=O)c1c(-c2ccccc2)n2c(=O)cc(C)c3c(O)c(O)cc1c32 | 43.1 | 11.9 | 10.8 | 38.7 | 20.2 | 25.1 | 35.7 | 22.7 | 5.94 | 2.8 | 3.34 | 6.93 | 22.7 | 6.74 | 6.06 | 37.5 | 3.35 | 4.56 | 11.4 | 4.98
O=C(Cc1cc(O)ccc1O)NO | > 100 | 32.4 | – | > 100 | > 100 | > 100 | > 100 | > 100 | > 100 | 18 | – | 21.2 | 45.8 | > 100 | > 100 | > 100 | > 100 | > 100 | 31.2 | 32.7
O=C(O)CN1C(=O)OC(c2ccccc2)C1=O (centres undefined) | > 100 | > 100 | > 100 | > 100 | > 100 | > 100 | > 100 | > 100 | – | – | – | – | > 100 | – | – | > 100 | – | – | – | –
c1cc[n+](Cc2c3ccccc3cc3c2ccc2ccccc23)cc1 | > 100 | 17.1 | 12.5 | 11.8 | 5.48 | 10.5 | 7.85 | 6.37 | > 100 | 4.77 | 3.15 | 3.21 | 17.8 | 3.09 | 1.71 | 11.6 | 1.13 | 2.55 | 1.18 | 1.1
COc1ccc(OC)c(C2=C(c3cn(C)c4ccccc34)C(=O)NC2=O)c1 | > 25 | > 25 | > 25 | > 25 | > 25 | > 25 | > 25 | > 25 | > 25 | > 25 | > 18.8 | 17.1 | > 25 | 22.4 | > 25 | > 25 | > 25 | > 25 | > 25 | > 25
OC1CC(O)O[C@H](c2ccccc2)C1 (some centres undefined) | > 100 | > 100 | > 100 | > 100 | > 100 | > 100 | > 100 | – | – | – | – | – | > 100 | – | – | > 100 | – | – | – | –
Cc1[nH]c(=O)n2c(C)nnc2c1C(=O)O | > 100 | > 100 | > 100 | > 100 | > 100 | > 100 | – | > 100 | – | – | – | – | > 100 | – | – | > 100 | – | – | – | –
